The target of assay [1] is T1, IKZF3 (Homo sapiens, UniProt Q96SW2+Q9UKT9).
T1 construct: expression of target proteins in cells; endogenous in cells
Description: Western blot degradation of IKZF3. As to conditions: hPBMC Cell; 24 hours. It counts as cell-based. As to the method: (§1) Conventional Western blot assay was performed to evaluate the effects of the compounds of the present disclosure on the expression of target proteins in cells.
(§2) (1) Cell Seeding and Protein Harvesting: The selected cells were processed according to the cell seeding procedure and protein harvesting procedure in Table II-2.
(§3) (2) To the collected supernatant, 5×SDS sample loading buffer was added, followed by denaturation at 95 °C for 5 minutes. The denatured samples were then separated by SDS-PAGE electrophoresis on a polyacrylamide gel. Proteins were transferred to a nitrocellulose membrane (0.45 μm NC membrane), blocked with blocking buffer at room temperature for 1 hour, and subjected to antibody incubation and development procedures according to the antibody manufacturer's instructions (Cell Signaling Technology).
(§4) Half-Maximal Degradation Concentration value (the drug concentration required for degrading proteins by 50%, abbreviated as DC50) reads method: comparing the grayscale values of Western blot bands from drug-treated samples with those from blank DMSO-treated controls, and identifying the drug concentration range at which the grayscale value is half that of the DMSO-treated control bands.
(§5) DC50 values can be calculated using ImageJ software to measure grayscale values of Western blot bands from drug-treated samples. The concentration-response curve is fitted to estimate the drug concentration corresponding to half the grayscale value.
(§6) Target protein remaining (%) refers to the percentage of target protein remaining in cells after treatment with protein degrader compounds.
(§7) Calculation method for target protein remaining (%): Use ImageJ software to measure grayscale values of Western blot bands from drug (protein degrader)-treated samples. The grayscale value of drug-treated bands is divided by that of internal control protein bands, and the resulting quotient is normalized to obtain the relative percentage of remaining target protein after protein degrader treatment.
(§8) Target protein degradation rate (%)=1−target protein remaining (%).

The target in assay [2] is T2, WEE1 (Homo sapiens, UniProt P30291+Q96SW2).
T2 construct: expression of target proteins in cells; endogenous in cells
T2 sequence (P30291 whole entry): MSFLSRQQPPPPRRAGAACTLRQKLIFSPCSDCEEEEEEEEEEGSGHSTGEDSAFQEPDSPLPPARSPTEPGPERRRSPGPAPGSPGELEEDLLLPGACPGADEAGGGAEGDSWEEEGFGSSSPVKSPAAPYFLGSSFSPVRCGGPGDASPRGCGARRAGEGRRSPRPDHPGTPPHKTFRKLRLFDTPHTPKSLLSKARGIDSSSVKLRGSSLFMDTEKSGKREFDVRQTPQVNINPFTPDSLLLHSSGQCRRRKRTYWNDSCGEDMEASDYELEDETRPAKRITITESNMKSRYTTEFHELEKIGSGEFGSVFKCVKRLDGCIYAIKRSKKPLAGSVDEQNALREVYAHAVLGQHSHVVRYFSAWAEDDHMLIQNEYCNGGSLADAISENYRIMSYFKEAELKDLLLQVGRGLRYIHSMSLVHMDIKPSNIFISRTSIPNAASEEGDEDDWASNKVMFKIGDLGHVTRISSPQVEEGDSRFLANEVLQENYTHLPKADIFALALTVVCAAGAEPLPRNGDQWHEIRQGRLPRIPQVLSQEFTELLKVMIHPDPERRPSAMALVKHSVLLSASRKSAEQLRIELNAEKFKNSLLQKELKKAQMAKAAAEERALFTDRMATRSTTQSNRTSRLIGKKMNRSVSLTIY
T2 sequence (Q96SW2 whole entry): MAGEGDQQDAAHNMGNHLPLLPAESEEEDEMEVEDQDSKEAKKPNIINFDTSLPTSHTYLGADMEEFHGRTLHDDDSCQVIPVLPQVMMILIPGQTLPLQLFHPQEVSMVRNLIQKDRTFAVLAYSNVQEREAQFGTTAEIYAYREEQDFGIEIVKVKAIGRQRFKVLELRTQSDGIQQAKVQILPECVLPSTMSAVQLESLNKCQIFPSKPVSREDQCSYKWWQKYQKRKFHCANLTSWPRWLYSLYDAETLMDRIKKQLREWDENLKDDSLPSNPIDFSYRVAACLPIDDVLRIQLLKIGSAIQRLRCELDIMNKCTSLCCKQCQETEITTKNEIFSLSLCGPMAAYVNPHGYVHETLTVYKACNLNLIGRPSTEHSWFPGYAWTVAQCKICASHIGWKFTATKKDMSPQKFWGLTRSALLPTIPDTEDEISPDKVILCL
T2 sequence (Q16531 whole entry partner): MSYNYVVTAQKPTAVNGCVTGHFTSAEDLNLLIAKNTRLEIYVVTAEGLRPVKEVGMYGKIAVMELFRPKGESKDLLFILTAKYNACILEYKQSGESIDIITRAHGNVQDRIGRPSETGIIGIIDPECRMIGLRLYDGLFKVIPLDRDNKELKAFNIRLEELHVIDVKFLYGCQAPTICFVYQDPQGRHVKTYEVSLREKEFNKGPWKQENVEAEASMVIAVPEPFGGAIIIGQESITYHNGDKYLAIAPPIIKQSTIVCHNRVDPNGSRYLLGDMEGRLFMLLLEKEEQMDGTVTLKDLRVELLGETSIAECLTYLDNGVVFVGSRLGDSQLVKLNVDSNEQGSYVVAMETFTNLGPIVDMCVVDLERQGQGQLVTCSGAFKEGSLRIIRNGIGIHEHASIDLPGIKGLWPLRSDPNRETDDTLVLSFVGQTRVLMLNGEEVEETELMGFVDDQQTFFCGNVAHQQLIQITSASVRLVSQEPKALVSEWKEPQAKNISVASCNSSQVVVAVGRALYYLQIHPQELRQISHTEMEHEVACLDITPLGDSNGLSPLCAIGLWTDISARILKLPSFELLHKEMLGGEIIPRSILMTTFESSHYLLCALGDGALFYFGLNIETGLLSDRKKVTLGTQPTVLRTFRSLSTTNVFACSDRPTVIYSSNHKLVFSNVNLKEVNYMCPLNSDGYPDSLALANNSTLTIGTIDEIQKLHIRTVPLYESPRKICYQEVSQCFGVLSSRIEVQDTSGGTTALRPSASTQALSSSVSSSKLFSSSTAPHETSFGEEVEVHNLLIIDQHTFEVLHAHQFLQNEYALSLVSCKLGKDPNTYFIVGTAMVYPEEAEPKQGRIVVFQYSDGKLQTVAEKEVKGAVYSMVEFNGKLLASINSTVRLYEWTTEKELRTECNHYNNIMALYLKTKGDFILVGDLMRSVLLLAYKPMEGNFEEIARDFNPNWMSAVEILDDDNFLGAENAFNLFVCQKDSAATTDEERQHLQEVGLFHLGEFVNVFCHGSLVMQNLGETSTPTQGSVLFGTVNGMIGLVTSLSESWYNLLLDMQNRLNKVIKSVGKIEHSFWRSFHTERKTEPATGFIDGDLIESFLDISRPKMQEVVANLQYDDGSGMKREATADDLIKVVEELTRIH
As to the kind of experiment: Western blot degradation of WEE1. Type of assay: cell-based. As to conditions: hPBMC Cell; 24 hours. As to the method:
as §1, §2, §3, §4, §5, §6, §7, §8
In general terms: A western blot detects proteins with antibodies after separation by electrophoresis.

Assay [3] addresses T3, IKZF2 (Homo sapiens, UniProt Q96SW2+Q9UKS7).
T3 construct: expression of target proteins in cells; endogenous in cells
Description: Western blot degradation of IKZF2. It counts as cell-based. As to conditions: hPBMC Cell; 24 hours. The method, then:
as §1, §2, §3, §4, §5, §6, §7, §8

The target of assay [4] is T4, IKZF1 (Homo sapiens, UniProt Q13422+Q96SW2).
T4 construct: expression of target proteins in cells; endogenous in cells
T4 sequence (Q13422 whole entry): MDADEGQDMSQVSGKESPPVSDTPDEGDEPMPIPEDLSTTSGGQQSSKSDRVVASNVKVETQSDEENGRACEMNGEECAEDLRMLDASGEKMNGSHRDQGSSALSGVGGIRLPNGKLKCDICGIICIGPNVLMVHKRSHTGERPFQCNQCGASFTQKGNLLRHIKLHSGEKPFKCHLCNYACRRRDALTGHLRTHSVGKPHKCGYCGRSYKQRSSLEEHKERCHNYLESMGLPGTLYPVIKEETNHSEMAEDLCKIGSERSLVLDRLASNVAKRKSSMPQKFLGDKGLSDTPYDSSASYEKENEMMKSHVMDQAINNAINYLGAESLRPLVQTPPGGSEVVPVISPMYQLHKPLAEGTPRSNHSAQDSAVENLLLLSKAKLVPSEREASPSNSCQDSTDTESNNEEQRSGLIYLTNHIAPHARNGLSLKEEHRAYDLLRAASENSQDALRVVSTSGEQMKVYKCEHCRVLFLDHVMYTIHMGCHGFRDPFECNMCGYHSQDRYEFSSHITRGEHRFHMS
T4 sequence (Q96SW2 whole entry): as the sequence (Q96SW2 whole entry) above
T4 sequence (Q16531 whole entry partner): as the sequence (Q16531 whole entry partner) above
Description: Western blot degradation of IKZF1. It counts as cell-based. The conditions noted are these: hPBMC Cell; 24 hours. The method, then: as §1, §2, §3, §4, §5, §6, §7, §8

Assay [5] deals with T5, CK1α (Homo sapiens, UniProt P48729+Q96SW2).
T5 construct: expression of target proteins in cells; endogenous in cells
As to the kind of experiment: Western blot degradation of CK1α. It counts as cell-based. As to conditions: hPBMC Cell; 24 hours. The method, then:
as §1, §2, §3, §4, §5, §6, §7, §8

For assay [6], the target named is T6, GSPT1 (Homo sapiens, UniProt P15170+Q96SW2).
T6 construct: expression of target proteins in cells; endogenous in cells
As to the kind of experiment: Western blot degradation of GSPT1. As to conditions: hPBMC Cell; 24 hours. Type of assay: cell-based. As to the method: as §1, §2, §3, §4, §5, §6, §7, §8

In assay [7] the target is T7, EGFR (Homo sapiens, UniProt P00533).
T7 construct: L858R/T790M in cis, heterozygous with wild type), Western blot
T7 sequence (P00533 25-1210): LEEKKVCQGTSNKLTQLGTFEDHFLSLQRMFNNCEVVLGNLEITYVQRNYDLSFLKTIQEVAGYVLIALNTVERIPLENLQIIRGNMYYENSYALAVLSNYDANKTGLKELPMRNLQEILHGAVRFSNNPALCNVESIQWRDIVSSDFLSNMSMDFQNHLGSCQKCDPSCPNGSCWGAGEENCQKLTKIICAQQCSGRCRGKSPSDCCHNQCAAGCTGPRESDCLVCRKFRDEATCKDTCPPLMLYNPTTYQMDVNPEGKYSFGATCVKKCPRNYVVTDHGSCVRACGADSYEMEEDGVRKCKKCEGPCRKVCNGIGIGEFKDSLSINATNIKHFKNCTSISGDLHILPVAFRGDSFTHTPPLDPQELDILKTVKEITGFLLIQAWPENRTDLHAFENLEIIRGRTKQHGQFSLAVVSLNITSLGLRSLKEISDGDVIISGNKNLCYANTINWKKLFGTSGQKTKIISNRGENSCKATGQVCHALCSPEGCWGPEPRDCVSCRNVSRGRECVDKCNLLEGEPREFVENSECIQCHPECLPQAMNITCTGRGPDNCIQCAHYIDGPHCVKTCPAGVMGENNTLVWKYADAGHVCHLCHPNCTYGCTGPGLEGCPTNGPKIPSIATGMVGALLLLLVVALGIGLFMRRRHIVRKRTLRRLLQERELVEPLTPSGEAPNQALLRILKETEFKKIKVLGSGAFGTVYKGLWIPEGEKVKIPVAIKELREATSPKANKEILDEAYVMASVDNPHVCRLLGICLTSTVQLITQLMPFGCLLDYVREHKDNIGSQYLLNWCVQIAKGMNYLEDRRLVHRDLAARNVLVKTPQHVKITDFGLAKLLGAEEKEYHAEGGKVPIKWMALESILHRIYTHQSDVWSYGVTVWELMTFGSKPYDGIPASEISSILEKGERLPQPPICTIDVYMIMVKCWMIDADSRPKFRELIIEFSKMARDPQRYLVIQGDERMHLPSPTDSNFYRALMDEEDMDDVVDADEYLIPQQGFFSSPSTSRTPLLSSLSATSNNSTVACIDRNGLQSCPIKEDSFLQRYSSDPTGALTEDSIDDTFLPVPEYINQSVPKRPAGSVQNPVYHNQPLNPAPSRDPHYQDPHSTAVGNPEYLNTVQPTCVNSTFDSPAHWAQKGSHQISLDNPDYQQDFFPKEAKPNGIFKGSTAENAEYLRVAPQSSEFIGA
T7 sequence (Q96SW2 whole entry partner): as the sequence (Q96SW2 whole entry) above
As to the kind of experiment: Western blot degradation of EGFR. Type of assay: cell-based. As to conditions: H1975 Cell; 24 hours. The method, then: as §1, §2, §3, §4, §5, §6, §7, §8

Assay [8] has as its system Human non-small cell lung cancer cell line NCI-H1975. Description: Inhibition of H1975 cell proliferation (CellTiter luminescent viability). It counts as cell-based. The conditions noted are these: Table ID1, EGFR inhibitor-based; H1975, 96 hours; read-out: Inhibitory activity (IC50, nM) on tumor cell proliferation, H1975. As to the method: The tumor cells used herein were cultured in a cell culture medium listed in table 3 at 37 °C in an incubator with 5% CO2. Prior to experimentation, all cell lines used were correctly identified by STR profiling, and tested negative for mycoplasma contamination using a mycoplasma detection kit through routine screenings.
The IC50 values of the compounds of the present disclosure (including the compounds in Table 1, Table 2, and Examples 1-468) were determined using the CellTiter-Meiluncell Luminescent Cell Viability Assay Kit from Dalian Meilun Biotech Co., Ltd. The detailed procedure is as follows: Tumor cells were seeded in 96-well cell culture plates at the densities specified in Table 4. On the following day, the test compounds of the present disclosure were subjected to serial dilution. The dilution can be performed according to one of the following two methods: • (1) The first dilution method: The test compounds of the present disclosure (including the compounds in Table 1, Table 2, and Examples 1-468) were subjected to 5-fold serial dilutions starting from a highest concentration of 2000 μM, resulting in a total of 9 concentrations from high to low (2000, 400, 80, 16, 3.2, 0.64, 0.128, 0.0256, 0.00512 μM). Subsequently, 0.5 μL of the test compound dilution was transferred into the 96-well plate containing the cells, with each well containing 100 μL of cell culture medium. […] Into the 96-well plate, the diluted test compounds and corresponding detection reagents were added, resulting in final test compound concentrations of 500 nM and 10 nM, respectively. The experimental procedure is described below using the diluted 2 μM test compound as an example.
0.5 μL of the aforementioned diluted compound of the present disclosure (including the compounds in Table 1, Table 2, and Examples 1-468) was added to the seeded cells in 100 μL of medium, yielding a final test compound concentration of 10 nM. After the cells were treated with the compounds of the present disclosure for a specified period, the cell viability assay reagent was added to the culture medium according to the kit's instructions to determine cell viability. […] All controls were treated using the same procedure as the compounds of the present disclosure. The growth inhibition curves for the compounds of the present disclosure were plotted using Prism GraphPad software, and the IC50 values were calculated therefrom.

Assay [9] has as its target T8, human Cereblon WT GST-tagged protein (CRBN) (Homo sapiens, UniProt Q96SW2).
T8 construct: purchased CISBIO 64BDCRBNPEH
As to the kind of experiment: CRBN binding by HTRF (Cereblon binding kit). The procedure, abridged: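 GST-tagged human Cereblon WT was incubated 3 h at room temperature with compound, thalidomide-Re tracer and Eu anti-GST antibody. Final compound concentrations were 10 to 0.00064 µM (7 points) or 2 and 0.5 µM. Inhibition rate was calculated from HTRF 665/620 nm ratios versus solvent and blank controls.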

The values that follow come from patent US20260364184A1, “COMPOUND BASED ON OXOISOINDOLINYL-SUBSTITUTED TETRAHYDROPYRIMIDINE-DIONE AND USE THEREOF” (GLUETACS THERAPEUTICS (SHANGHAI) CO., LTD., priority 2023, published 2026).

Bounds are passed on as bounds.

T8 sequence (Q96SW2 whole entry): as the sequence (Q96SW2 whole entry) above
T1 sequence (Q9UKT9 whole entry): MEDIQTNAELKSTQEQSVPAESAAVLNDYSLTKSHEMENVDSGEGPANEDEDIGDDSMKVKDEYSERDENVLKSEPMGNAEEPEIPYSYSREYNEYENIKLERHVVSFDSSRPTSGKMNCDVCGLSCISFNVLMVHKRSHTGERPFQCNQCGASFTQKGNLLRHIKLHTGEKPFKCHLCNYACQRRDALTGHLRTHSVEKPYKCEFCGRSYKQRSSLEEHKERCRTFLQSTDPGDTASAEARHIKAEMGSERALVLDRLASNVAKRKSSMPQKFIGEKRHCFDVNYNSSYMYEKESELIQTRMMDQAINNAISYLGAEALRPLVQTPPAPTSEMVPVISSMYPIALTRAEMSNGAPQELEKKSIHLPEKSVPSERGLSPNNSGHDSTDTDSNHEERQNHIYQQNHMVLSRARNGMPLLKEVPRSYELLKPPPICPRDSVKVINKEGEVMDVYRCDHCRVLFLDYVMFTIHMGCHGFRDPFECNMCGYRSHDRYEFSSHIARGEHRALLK
T1 sequence (Q96SW2 whole entry): as the sequence (Q96SW2 whole entry) above
T1 sequence (Q16531 whole entry partner): as the sequence (Q16531 whole entry partner) above

For `O=C1CCN(N2C(=O)c3ccc(Br)cc3C2=O)C(=O)N1` [GT-04511, 5-bromo-2-(2,4-dioxotetrahydropyrimidin-1(2H)-yl)isoindoline-1,3-dione], in assay [1], the “Degradation of substrate protein IKZF3 (substrate protein remaining %)” value was “B (80%<substrate protein remaining %≤100%)”. Also, in assay [2], the “Degradation of substrate protein WEE1 (substrate protein remaining %)” value is on record as “B (80%<substrate protein remaining %≤100%)”. In addition, in assay [3], the “Degradation of substrate protein IKZF2 (substrate protein remaining %)” value was “B (80%<substrate protein remaining %≤100%)”. In assay [4], the “Degradation of substrate protein IKZF1 (substrate protein remaining %)” value is listed as “B (80%<substrate protein remaining %≤100%)”. Further, the “Degradation of substrate protein CK1α (substrate protein remaining %)” value in assay [5] is “B (80%<substrate protein remaining %≤100%)”. Also, the “Degradation of substrate protein GSPT1 (substrate protein remaining %)” value in [6] is reported as “A (0%≤substrate protein remaining %≤80%)”.
For the compound `O=C1CCN(N2Cc3cc(CN4C[C@@H]5C[C@H]4CN5c4ccc(-c5cc(F)c6c(c5)C(=O)N(C(C(=O)Nc5nccs5)c5ncn7c5CCC7)C6)cc4)ccc3C2=O)C(=O)N1` (stereo partly drawn) [GT-05114, 2-(6,7-dihydro-5H-pyrrolo[1,2-c]imidazol-1-yl)-2-(6-(4-((1S,4S)-5-((2-(2,4-dioxotetrahydropyrimidin-1(2H)-yl)-1-oxoisoindolin-5-yl)methyl)-2,5-diazabicyclo[2.2.1]heptan-2-yl)phenyl)-4-fluoro-1-oxoisoindolin-2-yl)-N-(thiazol-2-yl)acetamide], the “Degradation of substrate protein EGFR (substrate protein remaining %)” value in assay [7] was “A (0%≤substrate protein remaining %≤80%)”. For the same compound, the IC50 in [8] fell in the range of 100 to 130 nM. Besides, in assay [9], the “Inhibition Rate at 0.5 μM (%)” value is given as “a2 (20% < a2 ≤ 30%)” and the “Inhibition Rate at 2 μM (%)” value is recorded as “a5 (53% < a5 ≤ 60%)”.
Take `O=C1CCN(N2Cc3cc(CN4CCN(c5ccc(-c6cc(F)c7c(c6)C(=O)N(C(C(=O)Nc6nccs6)c6ncn8c6CCC8)C7)cc5)CC4)ccc3C2=O)C(=O)N1` (stereo not drawn) [GT-06159, 2-(6,7-dihydro-5H-pyrrolo[1,2-c]imidazol-1-yl)-2-(6-(4-(4-((2-(2,4-dioxotetrahydropyrimidin-1(2H)-yl)-1-oxoisoindolin-5-yl)methyl)piperazin-1-yl)phenyl)-4-fluoro-1-oxoisoindolin-2-yl)-N-(thiazol-2-yl)acetamide]: in [7], the “Degradation of substrate protein EGFR (substrate protein remaining %)” value was “A (0%≤substrate protein remaining %≤80%)”. Moreover, the IC50 in assay [8] is less than 10 nM.
For `O=C1CCN(N2C(=O)c3ccc(N4CCC(CN5CCN(c6ccc(-c7cc(F)c8c(c7)C(=O)N(C(C(=O)Nc7nccs7)c7ncn9c7CCC9)C8)cc6)CC5)CC4)cc3C2=O)C(=O)N1` (stereo not drawn) [GT-06161, 2-(6,7-dihydro-5H-pyrrolo[1,2-c]imidazol-1-yl)-2-(6-(4-(4-((1-(2-(2,4-dioxotetrahydropyrimidin-1(2H)-yl)-1,3-dioxoisoindolin-5-yl)piperidin-4-yl)methyl)piperazin-1-yl)phenyl)-4-fluoro-1-oxoisoindolin-2-yl)-N-(thiazol-2-yl)acetamide], the “Degradation of substrate protein EGFR (substrate protein remaining %)” value in [7] is “A (0%≤substrate protein remaining %≤80%)”. Further, in assay [8], the IC50 was in the range of 10 to 50 nM.
The like results for `O=C1CCN(N2C(=O)c3ccc(N4CCC(CN5C[C@H]6C[C@@H]5CN6c5ccc(-c6cc(F)c7c(c6)C(=O)N(C(C(=O)Nc6nccs6)c6ncn8c6CCC8)C7)cc5)CC4)cc3C2=O)C(=O)N1` (stereo partly drawn) [GT-06174, 2-(6,7-dihydro-5H-pyrrolo[1,2-c]imidazol-1-yl)-2-(6-(4-((1R,4R)-5-((1-(2-(2,4-dioxotetrahydropyrimidin-1(2H)-yl)-1,3-dioxoisoindolin-5-yl)piperidin-4-yl)methyl)-2,5-diazabicyclo[2.2.1]heptan-2-yl)phenyl)-4-fluoro-1-oxoisoindolin-2-yl)-N-(thiazol-2-yl)acetamide] were, in that order, “A (0%≤substrate protein remaining %≤80%)” and 10 to 50 nM.
With `O=C1CCN(N2C(=O)c3cccc(N4CCC(CN5C[C@H]6C[C@@H]5CN6c5ccc(-c6cc(F)c7c(c6)C(=O)N(C(C(=O)Nc6nccs6)c6ncn8c6CCC8)C7)cc5)CC4)c3C2=O)C(=O)N1` (stereo partly drawn) [GT-06175, 2-(6,7-dihydro-5H-pyrrolo[1,2-c]imidazol-1-yl)-2-(6-(4-((1R,4R)-5-((1-(2-(2,4-dioxotetrahydropyrimidin-1(2H)-yl)-1,3-dioxoisoindolin-4-yl)piperidin-4-yl)methyl)-2,5-diazabicyclo[2.2.1]heptan-2-yl)phenyl)-4-fluoro-1-oxoisoindolin-2-yl)-N-(thiazol-2-yl)acetamide], the “Degradation of substrate protein EGFR (substrate protein remaining %)” value in assay [7] is listed as “A (0%≤substrate protein remaining %≤80%)”. In addition, the IC50 in [8] was in the range of 10 to 50 nM.
Take `O=C1CCN(N2Cc3cc(CN4CCN(C5CCN(c6ccc(-c7cc(F)c8c(c7)C(=O)N(C(C(=O)Nc7nccs7)c7ncn9c7CCC9)C8)cc6)CC5)CC4)ccc3C2=O)C(=O)N1` (stereo not drawn) [GT-06241, 2-(6,7-dihydro-5H-pyrrolo[1,2-c]imidazol-1-yl)-2-(6-(4-(4-(4-((2-(2,4-dioxotetrahydropyrimidin-1(2H)-yl)-1-oxoisoindolin-5-yl)methyl)piperazin-1-yl)piperidin-1-yl)phenyl)-4-fluoro-1-oxoisoindolin-2-yl)-N-(thiazol-2-yl)acetamide]: in assay [7], the “Degradation of substrate protein EGFR (substrate protein remaining %)” value is “A (0%≤substrate protein remaining %≤80%)”. For the same compound, in assay [8], the IC50 was 10 to 50 nM. For the same compound, in assay [9], the “Inhibition Rate at 0.5 μM (%)” value is “a1 (10% < a1 ≤ 20%)” and the “Inhibition Rate at 2 μM (%)” value is on record as “a5 (53% < a5 ≤ 60%)”.
For `O=C1CCN(N2Cc3cc(CN4CCN(C5CCN(c6ccc(-c7cc(F)c8c(c7)C(=O)N(C(C(=O)Nc7nccs7)c7ncn9c7CCC9)C8)cc6)CC5(F)F)CC4)ccc3C2=O)C(=O)N1` (stereo not drawn) [GT-06315, 2-(6,7-dihydro-5H-pyrrolo[1,2-c]imidazol-1-yl)-2-(6-(4-(4-(4-((2-(2,4-dioxotetrahydropyrimidin-1(2H)-yl)-1-oxoisoindolin-5-yl)methyl)piperazin-1-yl)-3,3-difluoropiperidin-1-yl)phenyl)-4-fluoro-1-oxoisoindolin-2-yl)-N-(thiazol-2-yl)acetamide], the “Degradation of substrate protein EGFR (substrate protein remaining %)” value in assay [7] is given as “A (0%≤substrate protein remaining %≤80%)”. For the same compound, the IC50 in assay [8] is less than 10 nM.
